Test results taken from ChEMBL document CHEMBL3994623, “The synthesis and antistaphylococcal activity of 9, 13-disubstituted berberine derivatives” (Eur J Med Chem, 2017).
In brackets after ≈: the same amount, converted by molar mass.

Columns and labels:
Staphylococcus aureus [1] = assay: Antistaphylococcal activity against Staphylococcus aureus Newman after 18 hrs by two fold serial dilution method; type: functional
Staphylococcus aureus [2] = assay: Antistaphylococcal activity against oxacillin/tetracycline-resistant Staphylococcus aureus NRS-100 after 18 hrs by two fold serial dilution method; type: functional; settings: NRS-100, 18 h
Staphylococcus aureus [3] = assay: Antistaphylococcal activity against gentamicin-resistant Staphylococcus aureus NRS-108 after 18 hrs by two fold serial dilution method; type: functional; settings: NRS-108, 18 h
Staphylococcus aureus [4] = assay: Antistaphylococcal activity against linezolid-resistant Staphylococcus aureus NRS-271 containing phage type E-MRSA after 18 hrs by two fold serial dilution method; type: functional; settings: NRS-271, 18 h
Staphylococcus aureus [5] = assay: Antistaphylococcal activity against erythromycin-resistant Staphylococcus aureus NRS-70 after 18 hrs by two fold serial dilution method; type: functional; settings: NRS-70, 18 h
Staphylococcus aureus [6] = assay: Antistaphylococcal activity against aminoglycosides/tetracycline-resistant Staphylococcus aureus NRS-1 after 18 hrs by two fold serial dilution method; type: functional; settings: NRS-1, 18 h
[7] = Cytotoxicity against HAF assessed as decrease in cell viability after 24 hrs by MTS assay; type: cell-based; settings: Homo sapiens
Staphylococcus aureus [8] = assay: Potency index, ratio of totarol MIC to test compound MIC for oxacillin/tetracycline-resistant Staphylococcus aureus NRS-100; type: functional
Staphylococcus aureus [9] = assay: Potency index, ratio of totarol MIC to test compound MIC for erythromycin-resistant Staphylococcus aureus NRS-70; type: functional
Staphylococcus aureus [10] = assay: Potency index, ratio of totarol MIC to test compound MIC for gentamicin-resistant Staphylococcus aureus NRS-108
[11] = Cytotoxicity against HAF assessed as effect on cell morphology at […] ug/ml after 24 hrs by hematoxylin-eosin staining-based contrast microscopic method; settings: human
Staphylococcus aureus [12] = assay: Potency index, ratio of totarol MIC to test compound MIC for linezolid-resistant Staphylococcus aureus NRS-271 containing phage type E-MRSA; type: functional
Staphylococcus aureus [13] = assay: Potency index, ratio of totarol MIC to test compound MIC for aminoglycosides/tetracycline-resistant Staphylococcus aureus NRS-1; type: functional
[14] = Cytotoxicity against HAF assessed as effect on cell morphology at 12.5 ug/ml after 24 hrs by hematoxylin-eosin staining-based contrast microscopic method; settings: human

Row | SMILES | MIC (Staphylococcus aureus [1]) [µg/mL] | MIC (Staphylococcus aureus [2]) [µg/mL] | MIC (Staphylococcus aureus [3]) [µg/mL] | MIC (Staphylococcus aureus [4]) [µg/mL] | MIC (Staphylococcus aureus [5]) [µg/mL] | MIC (Staphylococcus aureus [6]) [µg/mL] | IC50 [7] [µg/mL] | also measured
1 | CCCCCNc1c(OC)ccc2c(Cc3ccccn3)c3[n+](cc12)CCc1cc2c(cc1-3)OCO2.[Br-] | 12.5 |  |  |  |  |  |  | 
2 | COc1ccc2c(Cc3ccc(C)cc3)c3[n+](cc2c1OC)CCc1cc2c(cc1-3)OCO2.[Br-] | 6.25 |  |  |  |  |  |  | 
3 | CCCCCNc1c(OC)ccc2c(Cc3ccc(C)c(C)c3)c3[n+](cc12)CCc1cc2c(cc1-3)OCO2.[Br-] | 1.25 | 1.56 | 1.56 | 1.56 | 1.56 | 3.13 | 12.5 | 
4 | CCCCNc1c(OC)ccc2c(Cc3ccc(F)cc3)c3[n+](cc12)CCc1cc2c(cc1-3)OCO2.[Br-] | 2.5 | 6.25 | 3.13 | 3.13 | 3.13 | 6.25 |  | 
5 | CCCCCNc1c(OC)ccc2c(Cc3ccc(C(F)(F)F)cc3)c3[n+](cc12)CCc1cc2c(cc1-3)OCO2.[Br-] | 1.25 | 1.56 | 1.56 | 1.56 | 1.56 | 1.56 | 11.4 | Ratio (Staphylococcus aureus [8]): 1 - 4; Ratio (Staphylococcus aureus [9]): 1 - 4; Ratio (Staphylococcus aureus [10]): 1 - 4; Activity [11]: Non-Toxic; Ratio (Staphylococcus aureus [12]): 1 - 4; Ratio (Staphylococcus aureus [13]): 1 - 4; Activity [14]: Toxic
6 | CCCCCCNc1c(OC)ccc2c(Cc3ccc(C)cc3)c3[n+](cc12)CCc1cc2c(cc1-3)OCO2.[Br-] | 1.56 | 1.56 | 1.56 | 1.56 | 1.56 | 1.56 | 12.8 | Ratio (Staphylococcus aureus [8]): 1 - 4; Ratio (Staphylococcus aureus [9]): 1 - 4; Ratio (Staphylococcus aureus [10]): 1 - 4; Activity [11]: Non-Toxic; Ratio (Staphylococcus aureus [12]): 1 - 4; Ratio (Staphylococcus aureus [13]): 1 - 4; Activity [14]: Toxic
7 | COc1ccc2c(Cc3ccc(C)cc3)c3[n+](cc2c1NCCCc1ccccc1)CCc1cc2c(cc1-3)OCO2.[Br-] | 3.13 |  |  |  |  |  |  | 
8 | CCCCNc1c(OC)ccc2c(Cc3ccc(C)cc3)c3[n+](cc12)CCc1cc2c(cc1-3)OCO2.[Br-] | 1.56 | 1.56 | 3.13 | 1.56 | 1.56 | 1.56 |  | 
9 | CCCCNc1c(OC)ccc2c(Cc3ccc(OC)cc3)c3[n+](cc12)CCc1cc2c(cc1-3)OCO2.[Br-] | 2.5 | 6.25 | 3.13 | 6.25 | 3.13 | 6.25 |  | 
10 | CCCCCNc1c(OC)ccc2c(CCCN3CCOCC3)c3[n+](cc12)CCc1cc2c(cc1-3)OCO2.[I-] | > 25 |  |  |  |  |  |  | 
11 | CCCCCNc1c(OC)ccc2c(CC(=O)OCC)c3[n+](cc12)CCc1cc2c(cc1-3)OCO2.[Br-] | 12.5 |  |  |  |  |  |  | 
12 | CCCCCNc1c(OC)ccc2c(Cc3ccc(C)cc3)c3[n+](cc12)CCc1cc2c(cc1-3)OCO2.[Br-] | 0.78 | 0.78 | 1.56 | 1.56 | 1.56 | 1.56 | 12.5 | Ratio (Staphylococcus aureus [8]): 1 - 4; Ratio (Staphylococcus aureus [9]): 1 - 4; Ratio (Staphylococcus aureus [10]): 1 - 4; Activity [11]: Non-Toxic; Ratio (Staphylococcus aureus [12]): 1 - 4; Ratio (Staphylococcus aureus [13]): 1 - 4; Activity [14]: Toxic
13 | CCCCCNc1c(OC)ccc2c(Cc3ccc(OC)cc3)c3[n+](cc12)CCc1cc2c(cc1-3)OCO2.[Br-] | 1.25 | 3.13 | 1.56 | 1.56 | 1.56 | 1.56 | 13.8 | 
14 | CCCCCNc1c(OC)ccc2c(Cc3cccs3)c3[n+](cc12)CCc1cc2c(cc1-3)OCO2.[Br-] | 3.13 |  |  |  |  |  |  | 
15 | CCCCCNc1c(OC)ccc2c(Cc3ccc(O)cc3)c3[n+](cc12)CCc1cc2c(cc1-3)OCO2.[Br-] | 2.5 | 3.13 | 3.13 | 3.13 | 1.56 | 6.25 | > 20 | Activity [11]: Non-Toxic; Activity [14]: Toxic
16 | CCCCCNc1c(OC)ccc2cc3[n+](cc12)CCc1cc2c(cc1-3)OCO2.[Cl-] | 3.13 |  |  |  |  |  |  | 

Row | SMILES | MIC (Staphylococcus aureus [1]) [µg/mL] | MIC (Staphylococcus aureus [2]) [µg/mL] | MIC (Staphylococcus aureus [3]) [µg/mL] | MIC (Staphylococcus aureus [4]) [µg/mL] | MIC (Staphylococcus aureus [5]) [µg/mL] | MIC (Staphylococcus aureus [6]) [µg/mL] | IC50 [7] [µg/mL] | also measured
17 | CCCCNc1c(OC)ccc2c(Cc3ccccc3)c3[n+](cc12)CCc1cc2c(cc1-3)OCO2.[Br-] | 3.13 |  |  |  |  |  | > 20 | 
18 | CCCCCCNc1c(OC)ccc2c(Cc3ccccc3)c3[n+](cc12)CCc1cc2c(cc1-3)OCO2.[Br-] | 2.5 | 3.13 | 3.13 | 3.13 | 1.56 | 1.56 |  | 
19 | CCCCCNc1c(OC)ccc2c(Cc3cccc(C)c3)c3[n+](cc12)CCc1cc2c(cc1-3)OCO2.[Br-] | 1.25 | 3.13 | 1.56 | 1.56 | 1.56 | 3.13 | 12.7 | 
20 | CCCCCCNc1c(OC)ccc2c(Cc3ccc(F)cc3)c3[n+](cc12)CCc1cc2c(cc1-3)OCO2.[Br-] | 1.56 | 6.25 | 3.13 | 3.13 | 3.13 | 3.13 |  | 
21 | CCCCCNc1c(OC)ccc2c(CCCN3CCCC3)c3[n+](cc12)CCc1cc2c(cc1-3)OCO2.[I-] | > 25 |  |  |  |  |  |  | 
22 | CCCCCNc1c(OC)ccc2c(Cc3ccc(F)cc3)c3[n+](cc12)CCc1cc2c(cc1-3)OCO2.[Br-] | 1.25 | 3.13 | 1.56 | 1.56 | 1.56 | 3.13 | 12.7 | 
23 | CCCCCNc1c(OC)ccc2c(CC(=O)O)c3[n+](cc12)CCc1cc2c(cc1-3)OCO2.[Br-] | 25 |  |  |  |  |  |  | 
24 | COc1ccc2c(Cc3ccc(C)cc3)c3[n+](cc2c1NCCCO)CCc1cc2c(cc1-3)OCO2.[Br-] | 6.25 |  |  |  |  |  |  | 
25 | CCCCCCNc1c(OC)ccc2c(Cc3ccc(OC)cc3)c3[n+](cc12)CCc1cc2c(cc1-3)OCO2.[Br-] | 2.5 | 3.13 | 3.13 | 6.25 | 3.13 | 6.25 |  | 
26 | CCCCCNc1c(OC)ccc2c(CCCN3CCCCC3)c3[n+](cc12)CCc1cc2c(cc1-3)OCO2.[I-] | > 25 |  |  |  |  |  |  | 
27 | CCCCCNc1c(OC)ccc2c(Cc3ccccc3)c3[n+](cc12)CCc1cc2c(cc1-3)OCO2.[Br-] | 1.56 | 1.56 | 1.56 | 1.56 | 1.56 | 3.13 | 15.8 | 
28 | CCCCCNc1c(OC)ccc2c(Cc3ccccc3C)c3[n+](cc12)CCc1cc2c(cc1-3)OCO2.[Br-] | 1.25 | 3.13 | 1.56 | 3.13 | 1.56 | 3.13 | 13 | 
29 | COc1ccc2c(Cc3ccccc3)c3[n+](cc2c1OC)CCc1cc2c(cc1-3)OCO2.[Br-] | 6.25 |  |  |  |  |  |  | 
30 | COc1ccc2cc3[n+](cc2c1OC)CCc1cc2c(cc1-3)OCO2 [BERBERINE] | > 25 |  |  |  |  |  |  | 
31 | CN[C@H](CC(C)C)C(=O)N[C@H]1C(=O)N[C@@H](CC(N)=O)C(=O)N[C@H]2C(=O)N[C@H]3C(=O)N[C@H](C(=O)N[C@H](C(=O)O)c4cc(O)cc(O)c4-c4cc3ccc4O)[C@H](O)c3ccc(c(Cl)c3)Oc3cc2cc(c3O[C@@H]2O[C@H](CO)[C@@H](O)[C@H](O)[C@H]2O[C@H]2C[C@](C)(N)[C@H](O)[C@H](C)O2)Oc2ccc(cc2Cl)[C@H]1O [VANCOMYCIN] | 0.78 (≈ 0.538 µM) | 0.78 (≈ 0.538 µM) | 0.39 (≈ 0.269 µM) | 0.39 (≈ 0.269 µM) | 0.39 (≈ 0.269 µM) | 1.56 (≈ 1.08 µM) |  | 
